Reference: patent US11040053B2, “Compositions and methods for activating “stimulator of interferon gene”13 dependent signalling” (CHINOOK THERAPEUTICS, INC., priority 2015, dated 2021)
pEC50, pKd: −log10 of the molar value. “Also recorded” adds a separate entry of the source.

Tests used:
HAQ allele hSTING = target: T1, HAQ allele hSTING (Homo sapiens, UniProt Q86WV6, G230A/H232R/R293Q); assay: Differential scanning fluorometry (DSF) binding to purified hSTING HAQ allele; conditions: for hSTING Tm Shift HAQ: DSF, 1 mg/ml STING AA140-379, ligand 1 mM; for binding relative to OH reference compound, in words: Table 4 comment, HAQ allele hSTING
T1 construct: DNA encoding amino acids 140-379 (amino acid numbering corresponding to Swiss Prot Q86WV6); 6xHIS (N, cleaved yes); SUMO (N, cleaved yes); made in house; host or cells: Rosetta2 (DE3) E. coli
Protocol: (§1) Cells were grown in lysogeny broth at 37° C. until a […] absorbance of 0.6 was reached. […] Cell pellets were re-suspended on ice in a buffer containing 50 mM Tris hydrochloride (Tris-HCl) pH 7.5, 500 mM sodium chloride (NaCl), 20 mM imidazole, 10% glycerol, 1 mM tris(2-carboxyethyl)phosphine hydrochloride (TCEP) and protease inhibitor tablet (Pierce) (Buffer A). Cells were lysed using an S-450D sonifier (Emmerson industrial) on ice. […] Protein was aliquoted, flash frozen in liquid nitrogen and stored at −80° C. until use.
(§2) The protein is heated in the presence of a dye that binds to and fluoresces in hydrophobic environments. The protein is thermally denatured by heating resulting in increased dye binding to the unfolded protein and fluorescence. The temperature midpoint (Tm) of a proteins denaturation is established by calculating the half maximal value of the denaturation curve. The temperature midpoint of the protein in the presence of a ligand is directly related to the affinity of the ligand for the protein and therefore its ability to stabilize the protein at higher temperatures.
(§3) Samples were placed in hard shell PCR plate (Bio-Rad). The fluorescence as a function of temperature was recorded in a CFX 96 real time PCR machine (Bio-Rad) reading on the HEX channel, excitation 450-490, emission 560-580 nm. The temperature gradient was from 15-80° C. ramping 0.5° C. per 15 seconds and recording every 0.5° C. After subtraction of the background signal from a sample lacking protein and ligand. The midpoint temperature (Tm) was calculated by fitting the curves of the fluorescence as a function of temperature to a Boltzmann sigmoidal function (Graph Pad Prism).

[1] = target: T2, wild type (WT) STING allele (Homo sapiens, UniProt Q86WV6, H232R); assay: Cytokine transcript induction (qRT-PCR) in STING^WT/WT hPBMCs; assay type: cell-based; conditions: FIGS. 7A-B, 2 hours stimulation, 100 μM to 0.1 μM
T2 construct: one donor was homozygous for the wild type (WT) STING allele; endogenous in cells; host or cells: human PBMCs, donor STING WT/WT
Protocol: (§4) The induction of type I interferon was measured in human primary blood mononuclear cells (hPBMCs) to evaluate the potency of mono- or di-F-CDN compounds as described herein. hPBMCs from two unique donors were used: one donor was homozygous for the wild type (WT) STING allele (STING^WT/WT) and the other donor was homozygous for the so-called reference (REF) STING allele (STING^REF/REF). The STING genotype of these donors was determined by PCR amplification and sequencing: genomic DNA was isolated from 10^4 hPBMCs using Quick Extract DNA Extraction Solution (Epicentre) and was used to amplify regions of exon 3, 6, and 7 of the human STING gene.
(§5) Cells were incubated at 37° C., 5% CO2 with concentrations ranging from 100 μM to 0.1 μM of each CDN. After 2 hours (FIGS. 7 and 8) or 2 hours and 6 hours (FIGS. 9-13) stimulation, cells were harvested by centrifugation and washed once with phosphate-buffered saline. Cellular RNA was isolated using the Aurum Total RNA 96 Kit and cDNA was synthesized using the iScript cDNA Synthesis Kit. Target and reference gene expression was assessed by real-time qRT-PCR using PrimePCR probe assays and the CFX96 gene cycler (all reagents and equipment from BioRad). Normalized IFNβ expression was expressed relative to untreated cells. Target genes included type I interferon (IFNβ), Th1-associated cytokines (IFNγ, IL-12p40) and NF-kB dependent inflammatory cytokines (TNFα, IL-6). Reference genes included GUSB alone (FIGS. 7 and 8) or GUSB and HSP90AB1 (FIGS. 9-13).

[2] = target: T3, reference (REF) STING allele (Homo sapiens, UniProt Q86WV6); assay: Cytokine transcript induction (qRT-PCR) in STING^REF/REF hPBMCs; assay type: cell-based; conditions: for cytokine responses (IFNβ, TNFα, IL-6, IFNγ, IL-12p40 expression), in words: FIGS. 9B-13B, 2 hours and 6 hours stimulation
T3 construct: endogenous in cells
Protocol: as §4, §5

hSTING HAQ allele = target: T4, hSTING HAQ allele (Homo sapiens, UniProt Q86WV6, G230A/H232R/R293Q/R71H); assay: IRF-3 inducible secreted luciferase reporter in THP1-Dual cells without digitonin; assay type: cell-based; conditions: for pEC50: without digitonin in THP1 cells (HAQ allele); for activity relative to OH reference compound, in words: Table 5 comment, THP1 cells without digitonin
T4 construct: a human monocyte cell line containing the hSTING HAQ allele; host or cells: THP1-Dual cells
Protocol: After 30 minutes, cells were washed and fresh RPMI media containing 10% FBS was added, and cells were incubated at 37° C. with 5% CO2 Cell culture supernatants from each sample were collected after overnight incubation, and 10 μL of the cell culture supernatants was added to 50 μL QUANTI-Luc reagent (Invivogen). Type I interferon activation was determined by measuring secreted luciferase levels on a SpectraMax M3 spectrophotometer (Molecular Devices). The EC50 value was determined from the dose-response curve for the 10 concentrations from the serial dilution of the reference compounds and compounds of the invention tested in this assay as listed in Table 5.

B16.SIY cells = assay: B16.SIY melanoma mouse model, intra-tumoral injection; assay type: in vivo, C57BL/6 mice; conditions: FIG. 14B, 5 μg IT, day 7 post-IT injection, vs HBSS control
Protocol: To determine whether the derivative molecules elicit anti-tumor immunity, 6-8 week old female C57BL/6 mice (8 mice per group) were implanted with B16.SIY cells (5×10^5 cells in 100 μL PBS). Mice were treated with reference compound 3′3′-RR-(A)(A) and di-F compound 3′3′-RR-(2′F-A)(2′F-A) (5, 50, 100 μg in a total volume of 40 μL HBSS), or HBSS vehicle control. Treatments began when tumors reached a volume of approximately 100 mm^3, on day 9 post tumor implantation. The CDN compounds were administered by […] injection into the center of the tumor (IT) using a 27 gauge needle. Mice were bled on day 16 post tumor implantation and PBMCs were isolated by Ficoll gradient (Miltenyi Biotech). 1×10^5 PBMCs were pre-incubated with anti-CD16/32 monoclonal antibody to block potential nonspecific binding, and labeled with PE-MHC class I pentamer (Proimmune) consisting of murine H-2Kb complexed to […] (SIY, SEQ ID NO: 16) peptide, anti-TCRβ-AF700 (H57-597), anti-CD8-Pacific Blue (53-6.7), anti-CD4-Pacific Orange (RM4-5) (all antibodies from BioLegend) and the Fixable Viability Dye eFluor 450 (eBioscience). Stained cells were analyzed using FACS Versa cytometer with FACSDiva software (BD). Data analysis was conducted with FlowJo software (Tree Star).

hSTING(REF) [3] = target: T5, hSTING(REF) (Homo sapiens, UniProt Q86WV6); assay: IFN-β luciferase reporter in HEK293T cells stably expressing hSTING(REF), digitonin permeabilization; conditions: FIGS. 6A-B, 0.1 μM to 100 μM and 6.25 μM CDN
Target sequence in this assay (Q86WV6 whole entry, the tested form may be a part): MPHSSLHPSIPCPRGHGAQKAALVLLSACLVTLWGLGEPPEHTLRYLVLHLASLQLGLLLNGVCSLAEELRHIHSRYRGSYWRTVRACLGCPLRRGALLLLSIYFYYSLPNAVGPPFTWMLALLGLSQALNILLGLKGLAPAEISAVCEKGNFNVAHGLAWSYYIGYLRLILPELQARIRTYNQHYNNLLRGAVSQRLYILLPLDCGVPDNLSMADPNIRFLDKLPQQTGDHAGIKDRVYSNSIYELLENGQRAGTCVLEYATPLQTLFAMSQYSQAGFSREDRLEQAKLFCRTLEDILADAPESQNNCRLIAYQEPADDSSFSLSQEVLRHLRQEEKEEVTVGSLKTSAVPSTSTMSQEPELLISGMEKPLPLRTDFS
Protocol: 24 hours later, cells were stimulated with native and synthetic CDN derivative molecules using digitonin permeabilization to ensure uniform uptake.
After 20 min, the stimulation mixtures were removed and 200 ul of DMEM media supplemented with 10% (vol/vol) fetal bovine serum, 1% L-Glutamine, and 1% Penicillin/Streptomycin was added. Cells were incubated an additional 6 hours (37° C., 5% CO2) and then cell lysates were prepared and reporter gene activity measured on a Spectramax M3 luminometer using the Dual-Glo Luciferase Assay System (Promega, catalog #E2920) as described by the manufacturer. IFNβ firefly luciferase reporter gene activity was normalized to TK renilla luciferase gene activity and plotted as fold induction over activity in unstimulated cells (mean+/−s.e.m.).

hSTING(WT) = hSTING(WT) (Homo sapiens, UniProt Q86WV6, H232R); assay: Differential scanning fluorometry (DSF) binding to purified hSTING WT; set-up: DNA encoding amino acids 140-379 (amino acid numbering corresponding to Swiss Prot Q86WV6); 6xHIS (N, cleaved yes); SUMO (N, cleaved yes); made in house; host or cells: Rosetta2 (DE3) E. coli; conditions: for hSTING Tm Shift WT: DSF, 1 mg/ml STING AA140-379, ligand 1 mM; for binding relative to OH reference compound, in words: Table 4 comment, wild type hSTING
Protocol: as §1, §2, §3

hSTING(REF) [4] = target: T5, hSTING(REF); assay: Differential scanning fluorometry (DSF) binding to purified hSTING REF allele; set-up: DNA encoding amino acids 140-379 (amino acid numbering corresponding to Swiss Prot Q86WV6); 6xHIS (N, cleaved yes); SUMO (N, cleaved yes); made in house; host or cells: Rosetta2 (DE3) E. coli; conditions: for hSTING Tm Shift REF: DSF, 1 mg/ml STING AA140-379, ligand 1 mM; for binding relative to OH reference compound, in words: Table 4 comment, REF allele hSTING
Protocol: as §1, §2, §3
Target sequence in this assay (Q86WV6 140-379): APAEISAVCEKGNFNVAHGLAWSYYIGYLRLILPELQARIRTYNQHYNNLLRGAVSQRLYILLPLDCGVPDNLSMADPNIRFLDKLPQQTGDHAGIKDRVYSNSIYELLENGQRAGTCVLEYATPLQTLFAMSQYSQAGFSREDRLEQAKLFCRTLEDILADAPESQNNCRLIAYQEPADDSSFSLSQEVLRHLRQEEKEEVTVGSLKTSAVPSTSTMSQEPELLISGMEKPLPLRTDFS

[5] = target: T6, human-STING(E149-S379)H232R protein (Homo sapiens, UniProt Q86WV6, H232R); assay: Surface Plasmon Resonance binding to hSTING WT; conditions: Biacore T200, 15° C., steady-state analysis
T6 construct: His6 (C); made in house; host or cells: E. coli
Protocol: Binding of the mono- and di-F CDN compounds was assessed using Surface Plasmon Resononce to determine a binding constant. An E. coli expression construct (human-STING[E149-S379]H232R) was prepared harboring the protein sequence:
Aliquots were prepared and stored at −80° C. in 30 mM Tris pH 7.5/100 mM NaCl/10% glycerol.
N-terminal avi-tagged human-STING(E149-S379)H232R protein was immobilized (2500 RUs) on a streptavidin chip at 15° C. in a Biacore T200 (GE Healthcare). Titrations of cyclic dinucleotides (CDNs as indicated in Table 6) in 30 mM Tris pH 7.5/50 mM NaCL/0.005% Tween 20/1 mM DTT/2% DMSO, were profiled (30 μLs/min, 180 seconds for sample contact/120 seconds for dissociation) against hSTING at 15° C. Kinetic analysis of the data was performed using Biacore T200 Evaluation software. Steady-state analysis of the data was performed using Graphpad Prism 6.0 software, using one site-specific binding algorithm (Equation is Y=Bmax*X/(Kd+X)).

T1 sequence (Q86WV6 140-379 G230A/H232R/R293Q limits assumed): as the sequence (Q86WV6 140-379) above, with G91A, H93R, R154Q counted along it
T3 sequence (Q86WV6 whole entry): as the sequence (Q86WV6 whole entry, the tested form may be a part) above
Sequence of hSTING(WT) (Q86WV6 140-379 H232R): as the sequence (Q86WV6 140-379) above, with H93R counted along it
T6 sequence (Q86WV6 with tags, fused parts or gaps H232R): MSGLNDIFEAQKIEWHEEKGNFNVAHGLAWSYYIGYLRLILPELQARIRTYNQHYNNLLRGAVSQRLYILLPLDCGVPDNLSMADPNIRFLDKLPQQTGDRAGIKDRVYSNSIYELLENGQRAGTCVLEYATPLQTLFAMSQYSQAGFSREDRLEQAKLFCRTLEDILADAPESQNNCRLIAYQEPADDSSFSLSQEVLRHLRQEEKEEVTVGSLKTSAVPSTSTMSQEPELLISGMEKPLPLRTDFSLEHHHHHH
T4 sequence (Q86WV6 whole entry R71H/G230A/H232R/R293Q): as the sequence (Q86WV6 whole entry, the tested form may be a part) above, with R71H, G230A, H232R, R293Q counted along it
T2 sequence (Q86WV6 whole entry H232R): as the sequence (Q86WV6 whole entry, the tested form may be a part) above, with H232R counted along it

Row | Structure (SMILES) | hSTING Tm Shift HAQ (HAQ allele hSTING) [°C] | relative normalized IFNβ expression, in words [1] | relative normalized IFNβ expression, in words ([2]; FIGS. 8A-B, 2 hours stimulation, 100 μM to 0.1 μM) | pEC50 (hSTING HAQ allele) | percent of SIY-specific CD8+ T cells in PBMCs, in words (B16.SIY cells) | IFNβ luciferase reporter induction by hSTING(REF), in words (hSTING(REF) [3]) | hSTING Tm Shift WT (hSTING(WT)) [°C] | hSTING Tm Shift REF (hSTING(REF) [4]) [°C] | cytokine responses (IFNβ, TNFα, IL-6, IFNγ, IL-12p40 expression), in words [2] | pKd [5] | binding relative to OH reference compound, in words (HAQ allele hSTING) | activity relative to OH reference compound, in words (hSTING HAQ allele) | binding relative to OH reference compound, in words (hSTING(WT)) | binding relative to OH reference compound, in words (hSTING(REF) [4])
1 | Nc1ncnc2c1ncn2[C@@H]1O[C@@H]2CO[P@@](=O)(S)O[C@H]3[C@@H](O)[C@H](n4cnc5c(N)ncnc54)O[C@@H]3CO[P@@](=O)(S)O[C@H]2[C@H]1O [3'3'-RR-(A)(A), reference compound] | 15.5 | induced similar levels of IFNβ; also recorded: induced higher levels of IFNβ transcript when compared to the 3′3′-(A)(A) compound | did not stimulate production of appreciable IFNβ transcript levels | 4.60 | elicited significantly SIY-specific CD8^+ T cells | responded poorly | 9.6 | 5.7 |  |  |  |  |  | 
2 | Nc1ncnc2c1ncn2[C@@H]1O[C@@H]2CO[P@@](=O)(S)O[C@H]3[C@@H](F)[C@H](n4cnc5c(N)ncnc54)O[C@@H]3CO[P@@](=O)(S)O[C@H]2[C@H]1O [Compound 22, (2R,3R,3aR,5R,7aR,9R,10R,10aS,12R,14aR)-2,9-bis(6-amino-9H-purin-9-yl)-3-fluoro-10-hydroxy-5,12-dimercaptooctahydro-2H,7H-difuro[3,2-d:3′,2′-j][1,3,7,9]tetraoxa[2,8]diphosphacyclododecine 5,12-dioxide] | 16.0 |  |  | 4.23 |  |  | 9.4 | 5.4 | able to elicit cytokine responses at 6 hours stimulation with 100 μM of compound | 5.89 |  |  |  | 
3 | Nc1nc2c(ncn2[C@@H]2O[C@@H]3CO[P@@](=O)(S)O[C@H]4[C@@H](O)[C@H](n5cnc6c(N)ncnc65)O[C@@H]4CO[P@@](=O)(S)O[C@H]3[C@H]2F)c(=O)[nH]1 [Compound 23, 2-amino-9-((2R,3R,3aR,5R,7aR,9R,10R,10aS,12R,14aR)-9-(6-amino-9H-purin-9-yl)-3-fluoro-10-hydroxy-5,12-dimercapto-5,12-dioxidooctahydro-2H,7H-difuro[3,2-d:3′,2′-j][1,3,7,9]tetraoxa[2,8]diphosphacyclododecin-2-yl)-1,9-dihydro-6H-purin-6-one] | 25.9 |  |  | 4.82 |  |  | 14.7 | 9.5 | induced more robust dose-dependent responses of each of the cytokines tested | 6.51 | improved binding | improved activity | improved binding | improved binding
4 | Nc1nc2c(ncn2[C@@H]2O[C@@H]3CO[P@@](=O)(S)O[C@H]4[C@@H](F)[C@H](n5cnc6c(N)ncnc65)O[C@@H]4CO[P@@](=O)(S)O[C@H]3[C@H]2O)c(=O)[nH]1 [Compound 24, 2-amino-9-((2R,3R,3aS,5R,7aR,9R,10R,10aR,12R,14aR)-9-(6-amino-9H-purin-9-yl)-10-fluoro-3-hydroxy-5,12-dimercapto-5,12-dioxidooctahydro-2H,7H-difuro[3,2-d:3′,2′-j][1,3,7,9]tetraoxa[2,8]diphosphacyclododecin-2-yl)-1,9-dihydro-6H-purin-6-one] | 28.8 |  |  | 4.89 |  |  | 15.9 | 9.7 | induced more robust dose-dependent responses of each of the cytokines tested | 7.43 | improved binding | improved activity | improved binding | improved binding
